Test results reported in US20240325330A1, “NEW METHOD TO TREAT ACIDOSIS RELATED DISEASES WITH ACETOACETATE” (INSTITUT NATIONAL DE LA SANTÉ ET DE LA RECHERCHE MÉDICALE, priority 2021, published 2024).

How the values were obtained:
[1] = tested on: human monocytes differentiated into macrophages under lactic acidosis (LA-Mφ); test: Mitochondrial mass (mtDNA copy number) and NRF2 mRNA expression; format: cell-based; conditions: data not shown
Description: (§1) Peripheral blood mononuclear cells (PBMC) were obtained from healthy human volunteers (Blood collection center, Angers, France; agreement ANG-2017-01) by standard density-gradient centrifugation on lymphocyte separation medium (Eurobio, Courtaboeuf, France). CD14+ monocytes were then isolated by positive magnetic cell-sorting (Miltenyi Biotec, Bergisch Gladbach, Germany). […]
(§2) Cells were lysed in Trizol reagent (Life Technologies, Thermo Fisher Scientific), and total RNA was extracted with the RNeasy Micro kit (Qiagen, Hilden, Germany) and then reverse-transcribed with the Superscript II reverse transcriptase (Life Technologies). Levels of mRNA encoding the indicated proteins were then analyzed by subjecting the cDNA obtained by reverse transcription to qPCR. Relative quantification was performed by the 2^−ΔΔCT method, with RPS18, EF1A, TBP, RPL13A and PPIA as references. Results are expressed as relative mRNA levels.
Mitochondrial DNA (mtDNA) content was determined by qPCR with primers specific for the ND4 and COX1 genes, and was weighted according to nuclear DNA levels, which were quantified by analyzing […], as previously described (23).

[2] = tested on: human monocytes differentiated into macrophages under lactic acidosis (LA-Mφ); test: Autophagy assessed by TEM or molecularly (LC3, p62 western blot, mRNA); format: cell-based; conditions: day 3 LA-Mφ+AcAc relative to Mφ; data not shown
Description: as §1, §2
Levels of LC3-I, LC3-II, p62, β-actin, AMPKα and pAMPKα were evaluated by western blotting. […] Protein loading was assessed by probing the membrane with a rabbit anti-β-actin antibody (Abcam, Cambridge, UK). Bound antibodies were detected by incubation with 1 μg/mL peroxidase-conjugated anti-rabbit or anti-mouse IgG antibody (Life Technologies) or with an anti-AMPK Ab, with the SuperSignal West Femto system (Thermo Fisher Scientific). […]

[3] = tested on: human monocytes differentiated into macrophages under lactic acidosis (LA-Mφ); test: Metabolite quantification in culture supernatants and acetyl-CoA in lysates; format: cell-based
Protocol: Peripheral blood mononuclear cells (PBMC) were obtained from healthy human volunteers (Blood collection center, Angers, France; agreement ANG-2017-01) by standard density-gradient centrifugation on lymphocyte separation medium (Eurobio, Courtaboeuf, France). CD14+ monocytes were then isolated by positive magnetic cell-sorting (Miltenyi Biotec, Bergisch Gladbach, Germany). Monocytes (1×10^6 cells/mL) were cultured in complete medium (CM) consisting of RPMI 1640 (Lonza, Verviers, Belgium) supplemented with 10% fetal calf serum (FCS) (Eurobio), 2 mM L-glutamine, 1 mM sodium pyruvate, 0.1 mM non-essential amino acids, 10 mM HEPES, 100 U/mL penicillin and 100 μg/mL streptomycin (all from Lonza) in the presence of 50 ng/mL GM-CSF (R&D Systems, Minneapolis, MN).
Experiments were performed in the presence of 10 mM lactic acid (Sigma-Aldrich, St Louis, MO) resulting in a pHe of 6.5 to generate LA-Mφ (lactic acidosis conditioning), 12.35 mM HCl to reach a final pHe of 6.5 and to generate HCl-Mφ(acidosis conditioning), 10 mM sodium lactate (Sigma-Aldrich) to generate lactate-Mφ (lactosis conditioning, pH 7.3), in the absence or presence of 5 mM lithium acetoacetate (AcAc) (Sigma-Aldrich, St Louis, MO).
The levels of glucose, glutamine, free L-amino acids and lactate in cell culture supernatants, and of acetyl-CoA in whole-cell lysates were determined, together with the intracellular ADP/ATP ratio, with enzymatic assays (Abcam), according to the manufacturer's instructions. […] Acetoacetate concentrations were quantified with β-hydroxybutyrate dehydrogenase (3-HBDH) (Roche Applied Science), an enzyme that catalyzes the reversible reduction of acetoacetate to β-hydroxybutyrate in the presence of excess NADH, with the concomitant oxidation of NADH. The progress of the reaction was monitored by measuring the decrease in 340 nm absorbance due to the conversion of NADH into NAD. AcAc consumption was determined by subtracting the concentration of AcAc in cell culture supernatants from that in cell-free culture supernatants.

[4] = tested on: PBMC from septic shock patients; test: Apoptosis of PBMC from septic shock patients (7-AAD, Annexin-V flow cytometry); format: cell-based, human; conditions: 5 mM AcAc, FIG. 4E
Protocol: Apoptosis was assessed by flow cytometry in freshly purified PBMC or after 3-day culture with or without AcAc. Cells were labeled with 7-AAD, Annexin-V FITC and anti-CD14 APC monoclonal antibody (all from BD Biosciences, San Jose, CA) and apoptotic monocytes were defined as CD14+ Annexin-V+ cells.
Peripheral blood mononuclear cells (PBMC) from septic patients and healthy subjects were purified by standard density-gradient centrifugation on lymphocyte separation medium (Eurobio, Courtaboeuf, France). PBMC were cultured for 24 h in a medium consisting of RPMI 1640 medium with L-glutamine and without glucose (Lonza, Verviers, Belgium) and supplemented with 6% FCS (Eurobio), 3% autologous plasma, 0.5 g/L glucose, 100 U/mL penicillin and 100 μg/mL streptomycin (all from Lonza) in the presence of 2 ng/mL GM-CSF (R&D Systems). In some experiments, the culture medium was supplemented with 5 mM AcAc or adjusted to 4 g/L glucose. After 24 h culture, the percentage of cells with depolarized mitochondria was assessed as described above. After 3 days of culture, intracellular ATP has been quantified as described above.

For `CC(=O)CC(=O)[O-].[Li+]` [AcAc, lithium acetoacetate], the mitochondrial mass ([1]; LA-Mφ+AcAc (5 mM AcAc, 10 mM lactic acid)) was “no reduction of the mitochondrial mass”, the “expression of NRF2” value ([1]; LA-Mφ+AcAc relative to LA-Mφ) was “tend to increase” and the autophagy [2] was “not upregulated”. For the same compound, the “uptake of glucose and amino acids and production of lactate” value ([3]; LA-Mφ in the presence of 5 mM AcAc, FIG. 2A-D) was “retain a partial capacity to take up glucose and amino acids and to produce lactate”, the “AcAc consumption by cells” value ([3]; LA-Mφ+AcAc culture supernatants, days 1 and 3, FIG. 2F) was “consume AcAc” and the “intracellular AcCoA levels” value ([3]; reduction induced by LA, in the presence of 5 mM AcAc) was “prevented the reduction of intracellular AcCoA levels”. For the same compound, the “protection of patient PBMCs from death by apoptosis” value [4] was “drastically protects”.
